Reference: US8664257B2, “Oxygen-substituted 3-heteroaroylamino-propionic acid derivatives and their use as pharmaceuticals” (Sanofi, priority 2010, dated 2014)
Like-named read-outs stand apart in the source and are kept apart here. Values belong to the compound of their own block, whether it stands above or below them.

Biological target: T1, Recombinant human cathepsin A (Homo sapiens, UniProt P10619)
T1 construct: Recombinant human cathepsin A (residues 29-480, with a C-terminal 10-His tag); 10-His (C); purchased R&D Systems 1049-SE
T1 sequence (P10619 29-312 limits assumed): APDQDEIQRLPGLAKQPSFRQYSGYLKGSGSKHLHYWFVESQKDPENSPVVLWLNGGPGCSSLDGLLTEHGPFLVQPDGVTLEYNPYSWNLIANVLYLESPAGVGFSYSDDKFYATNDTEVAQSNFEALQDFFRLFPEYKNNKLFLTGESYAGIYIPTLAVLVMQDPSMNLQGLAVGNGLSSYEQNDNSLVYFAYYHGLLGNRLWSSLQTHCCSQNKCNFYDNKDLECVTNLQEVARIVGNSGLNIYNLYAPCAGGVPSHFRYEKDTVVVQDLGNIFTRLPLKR
T1 sequence (P10619 327-480 limits assumed): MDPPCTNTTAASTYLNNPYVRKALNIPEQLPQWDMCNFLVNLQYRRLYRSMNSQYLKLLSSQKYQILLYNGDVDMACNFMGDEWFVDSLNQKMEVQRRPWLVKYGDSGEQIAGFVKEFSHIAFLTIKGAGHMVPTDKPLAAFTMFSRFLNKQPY
Experiment: Cathepsin A inhibitory activity
Assay type: biochemical
Summary of the method: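 Read-out was microfluidic separation of cleaved vs. uncleaved Bodipy FL-bradykinin (2 μM), giving turnover, % inhibition and IC50. Compound and 833 ng/ml enzyme met for 15 min RT in pH 5.5 MES/DTT before substrate (15 min RT). The 29-480 His-tagged human enzyme was first activated by cathepsin L, then E-64 (10 μM).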

[1] = pharmacological test "Cathepsin A inhibitory activity", IC50 given as class A/B/C, read-out: Activity (2): Cathepsin A inhibitory activity, IC50 class
[2] = read-out: Activity (2): Cathepsin A inhibitory activity, IC50 class
[3] = recombinant human cathepsin A 833 ng/ml, Bodipy FL-labeled bradykinin 2 μM, pH 5.5, read-out: CATH-A IC50
[4] = recombinant human cathepsin A, read-out: Activity (2): Cathepsin A inhibitory activity, IC50 class
[5] = read-out: Activity (2): Cathepsin A inhibitory activity (IC50 class)

Structure (SMILES): COc1cccc([C@H](CC(=O)O)NC(=O)c2cc(O)n(-c3ccccc3)n2)c1 [Example 165]
- IC50 [1]: 1000 to 30000 nM

Structure (SMILES): O=C(O)C[C@H](NC(=O)c1cc(O)n(-c2cccc(F)c2)n1)c1ccccc1C(F)(F)F [Example 329]
- IC50 [2]: 100 to 1000 nM

Structure (SMILES): COc1ccc(Cl)cc1C(CC(=O)O)NC(=O)c1cc(O)n(-c2ccc(F)cc2F)n1 (stereo not drawn) [Example 178]
- IC50 [1]: 1000 to 30000 nM

Structure (SMILES): CC(C)C(C)(O)COc1cc(C(=O)N[C@@H](CC(=O)O)c2cccc(Cl)c2)nn1-c1ccccc1F (stereo partly drawn) [Example 785, (S)-3-(3-Chloro-phenyl)-3-{[1-(2-fluoro-phenyl)-5-(2-hydroxy-2,3-dimethyl-butoxy)-1H-pyrazole-3-carbonyl]-amino}-propionic acid]
- IC50 [5]: < 100 nM

Structure (SMILES): O=C(O)CC(NC(=O)c1cc(O)n(-c2ccc(F)cc2)n1)c1cccc(Cl)c1 (stereo not drawn) [Example 338]
- IC50 [2]: 100 to 1000 nM

Structure (SMILES): CCOc1cc(C(=O)NC(CC(=O)O)c2ccc(OC)cc2C)nn1-c1ccccc1F (stereo not drawn) [Example 714]
- IC50 [5]: < 100 nM

Structure (SMILES): CC(C)(C)[C@](C)(O)COc1cc(C(=O)NC(CC(=O)O)C2CCCCC2)nn1-c1ccccc1F (stereo partly drawn) [Example 773, 3-Cyclohexyl-3-{[1-(2-fluoro-phenyl)-5-((S)-2-hydroxy-2,3,3-trimethyl-butoxy)-1H-pyrazole-3-carbonyl]-amino}-propionic acid]
- IC50 [5]: < 100 nM

Structure (SMILES): O=C(O)C[C@H](NC(=O)c1cc(O)n(-c2ccc(F)cc2)n1)c1ccc(C(F)(F)F)cc1 [Example 351]
- IC50 [2]: 1000 to 30000 nM

Structure (SMILES): O=C(O)CC(NC(=O)c1cc(O)n(-c2ccccc2F)n1)c1ccc(-c2cccc(Cl)c2)cc1 (stereo not drawn) [Example 541]
- IC50 [5]: 100 to 1000 nM

Structure (SMILES): O=C(O)CC(NC(=O)c1cc(O)n(-c2ccccc2F)n1)c1cccc(C(F)(F)F)c1 (stereo not drawn) [Example 231]
- IC50 [1]: 100 to 1000 nM

Structure (SMILES): Cc1ccc(C)c(-n2nc(C(=O)NC(CC(=O)O)c3ccc(OC(F)(F)F)cc3)cc2O)c1 (stereo not drawn) [Example 31]
- IC50 [2]: 1000 to 30000 nM

Structure (SMILES): CC(C)C(C)(O)COc1cc(C(=O)NC(CC(=O)O)C2CCCCC2)nn1-c1ccccc1F (stereo not drawn) [Example 813, 3-Cyclohexyl-3-{[1-(2-fluoro-phenyl)-5-(2-hydroxy-2,3-dimethyl-butoxy)-1H-pyrazole-3-carbonyl]-amino}-propionic acid]
- IC50 [2]: < 100 nM

Structure (SMILES): Cc1ccccc1[C@H](CC(=O)O)NC(=O)c1cc(OC(=O)N(C)c2ccccc2)n(-c2ccccc2F)n1 [Example 620]
- IC50 [5]: < 100 nM

Structure (SMILES): O=C(O)C[C@H](NC(=O)c1cc(O)n(-c2ccc(F)cc2)n1)c1cccc(Cl)c1Cl [Example 347]
- IC50 [2]: 100 to 1000 nM

Structure (SMILES): COc1ccc(C(CC(=O)O)NC(=O)c2cc(O)n(-c3ccc(F)cc3)n2)c(OC)c1 (stereo not drawn) [Example 436]
- IC50 [4]: 1000 to 30000 nM

Structure (SMILES): Cc1ccc([C@H](CC(=O)O)NC(=O)c2cc(O)n(-c3cccc(F)c3)n2)cc1 [Example 489]
- IC50 [4]: 100 to 1000 nM

Structure (SMILES): O=C(O)C[C@H](NC(=O)c1cc(O)n(-c2ccccc2)n1)c1ccccc1Cl [Example 446, (S)-3-(2-Chloro-phenyl)-3-[(5-hydroxy-1-phenyl-1H-pyrazole-3-carbonyl)-amino]-propionic acid]
- IC50 [3]: 120 nM
- IC50 [4]: 100 to 1000 nM

Structure (SMILES): CC(C)CC(CC(=O)O)NC(=O)c1cc(OC[C@](C)(O)C(C)C)n(-c2ccccc2F)n1 (stereo partly drawn) [Example 823, 3-{[1-(2-Fluoro-phenyl)-5-((R)-2-hydroxy-2,3-dimethyl-butoxy)-1H-pyrazole-3-carbonyl]-amino}-5-methyl-hexanoic acid]
- IC50 [2]: 100 to 1000 nM

Structure (SMILES): CCOc1cc(C(=O)N[C@@H](CC(=O)O)c2ccccc2C(F)(F)F)nn1-c1ccccc1Cl [Example 741]
- IC50 [5]: 100 to 1000 nM

Structure (SMILES): O=C(O)CC(NC(=O)c1cc(O)n(-c2cccnc2)n1)c1ccc(-c2ccccc2)cc1 (stereo not drawn) [Example 440]
- IC50 [4]: 1000 to 30000 nM

Structure (SMILES): N#Cc1cccc([C@H](CC(=O)O)NC(=O)c2cc(O)n(-c3cccc(F)c3)n2)c1 [Example 303]
- IC50 [2]: 1000 to 30000 nM

Structure (SMILES): COc1ccc([C@H](CC(=O)O)NC(=O)c2cc(O)n(-c3ccccc3Cl)n2)cn1 [Example 139]
- IC50 [1]: 100 to 1000 nM

Structure (SMILES): O=C(O)CC(NC(=O)c1cc(O)n(-c2ccccc2F)n1)c1ccc(Oc2ccccc2)cc1 (stereo not drawn) [Example 124]
- IC50 [2]: 100 to 1000 nM

Other lines, results leading:

- IC50 [1]: 100 to 1000 nM
Structure (SMILES): O=C(O)C[C@H](NC(=O)c1cc(O)n(-c2ccccc2)n1)c1ccc(F)cc1 [Example 163]

- IC50 [2]: 100 to 1000 nM
Structure (SMILES): O=C(O)C[C@H](NC(=O)c1cc(O)n(-c2cccc(F)c2)n1)c1ccc(Cl)cc1 [Example 331]

- IC50 [2]: 1000 to 30000 nM
Structure (SMILES): O=C(O)CC(NC(=O)c1cc(O)n(-c2ccccc2)n1)c1cc(C(F)(F)F)cc(C(F)(F)F)c1 (stereo not drawn) [Example 59]

- IC50 [2]: 1000 to 30000 nM
Structure (SMILES): Cc1ccc(C)c(-n2nc(C(=O)NC(CCc3ccccc3)CC(=O)O)cc2O)c1 (stereo not drawn) [Example 34]

- IC50 [2]: 1000 to 30000 nM
Structure (SMILES): O=C(O)C[C@H](NC(=O)c1cc(O)n(-c2ccc(F)cc2)n1)c1cccnc1 [Example 372]

- IC50 [2]: 100 to 1000 nM
Structure (SMILES): Cc1ccc(C(CC(=O)O)NC(=O)c2cc(O)n(-c3ccccc3)n2)c(C)c1 (stereo not drawn) [Example 84]

- IC50 [3]: 1730 nM
- IC50 [4]: 1000 to 30000 nM
Structure (SMILES): O=C(O)CC(NC(=O)c1cc(O)n(-c2ccc(Cl)cc2)n1)c1cc(F)ccc1C(F)(F)F (stereo not drawn) [Example 473, 3-{[1-(4-Chloro-phenyl)-5-hydroxy-1H-pyrazole-3-carbonyl]-amino}-3-(5-fluoro-2-trifluoromethyl-phenyl)-propionic acid]

- IC50 [5]: 100 to 1000 nM
Structure (SMILES): CCOc1cc(C(=O)N[C@@H](CC(=O)O)c2cccc(OC)c2)nn1-c1ccccc1Cl [Example 731]

- IC50 [3]: 80.4 nM
- IC50 [4]: < 100 nM
Structure (SMILES): O=C(O)CC(NC(=O)c1cc(O)n(-c2ccccc2Cl)n1)c1cc(Cl)ccc1Cl (stereo not drawn) [Example 462, 3-{[1-(2-Chloro-phenyl)-5-hydroxy-1H-pyrazole-3-carbonyl]-amino}-3-(2,5-dichloro-phenyl)-propionic acid]

- IC50 [1]: 1000 to 30000 nM
Structure (SMILES): Cc1ccccc1[C@H](CC(=O)O)NC(=O)c1cc(O)n(-c2nccc(C(F)(F)F)n2)n1 [Example 138]

- IC50 [2]: 100 to 1000 nM
Structure (SMILES): O=C(O)C[C@H](NC(=O)c1cc(O)n(-c2ccccc2F)n1)c1ccccc1C(F)(F)F [Example 119]

- IC50 [5]: 100 to 1000 nM
Structure (SMILES): O=C(O)CC(NC(=O)c1cc(O)n(-c2ccccc2C(F)(F)F)n1)c1ccc(-c2ccc(F)cc2)cc1 (stereo not drawn) [Example 569]

- IC50 [2]: 1000 to 30000 nM
Structure (SMILES): COc1ccc(Cl)cc1C(CC(=O)O)NC(=O)c1cc(O)n(-c2ccc(Cl)cc2)n1 (stereo not drawn) [Example 275]

- IC50 [2]: 100 to 1000 nM
Structure (SMILES): O=C(O)C[C@H](NC(=O)c1cc(O)n(-c2ccccc2)n1)c1ccccc1F [Example 96]

- IC50 [3]: 233 nM
- IC50 [4]: 100 to 1000 nM
Structure (SMILES): O=C(O)CC(NC(=O)c1cc(O)n(-c2ccc(F)cc2F)n1)c1cc(F)ccc1F (stereo not drawn) [Example 451, 3-(2,5-Difluoro-phenyl)-3-{[1-(2,4-difluoro-phenyl)-5-hydroxy-1H-pyrazole-3-carbonyl]-amino}-propionic acid]

- IC50 [5]: < 100 nM
Structure (SMILES): COc1cc(C(=O)N[C@@H](CC(=O)O)c2ccccc2C)nn1-c1cc(F)ccc1F [Example 610]

- IC50 [3]: 398 nM
- IC50 [4]: 100 to 1000 nM
Structure (SMILES): O=C(O)CC(NC(=O)c1cc(O)n(-c2ccc(Cl)cc2)n1)c1cc(F)ccc1Cl (stereo not drawn) [Example 470, 3-(2-Chloro-5-fluoro-phenyl)-3-{[1-(4-chloro-phenyl)-5-hydroxy-1H-pyrazole-3-carbonyl]-amino}-propionic acid]

- IC50 [1]: 1000 to 30000 nM
Structure (SMILES): O=C(O)C[C@H](NC(=O)c1cc(O)n(-c2cccc(Cl)c2)n1)c1cccc(C(F)(F)F)c1 [Example 259]

- IC50 [2]: 100 to 1000 nM
Structure (SMILES): COc1ccccc1[C@H](CC(=O)O)NC(=O)c1cc(O)n(-c2cccc(F)c2)n1 [Example 307]

- IC50 [2]: 1000 to 30000 nM
Structure (SMILES): COc1ccc(C(CC(=O)O)NC(=O)c2cc(O)n(-c3ccc(F)c(Cl)c3)n2)c(F)c1 (stereo not drawn) [Example 88]
